Laboratory results published in paper PMC7377239, “Cardiovascular Effects of Polychlorinated Biphenyls and Their Major Metabolites” (Environmental Health Perspectives, 2020).
Structures can show the parent of a compound that is named as a salt. Where two headings read alike, the source gives them in different places.

Test system: HUVECs
Experiment: Tube formation (tubulogenesis) assay in HUVECs, 18 h
Format: cell-based, human
Settings: Homo sapiens, HUVEC, 18 h; for activity at 0.1 µM: 0.10 µM
Procedure: Similar to the cultivation of iCell®-endothelial cells, HUVEC maintenance and experimentation are detailed elsewhere ([Iwata et al. 2017]). Briefly, HUVECs were thawed, seeded, and grown in T75 tissue culture flasks in Medium 199 with EGM™-2 BulletKits™. HUVECs were incubated at regular cell culture conditions, 37°C and 5% CO2 , and passaged every 2–3 d using TrypLE™ Express. To ensure adequate endothelial function, experiments were performed with cells between passages 1 and 5.
Tube formation assays were performed on Geltrex™ LDEV-free reduced growth factor basement membrane using both iCell®-endothelial cells and HUVECs in 384-well format exactly as detailed in Iwata et al. ([2017]). Negative controls included media-only and vehicle control (i.e., 0.5% vol/vol DMSO in cell culture media) wells. Positive assay controls were consistent with previously published reports ([Iwata et al. 2017]) and included TAB ( 50μM ) as a cytotoxic control, and nocodazole ( 0.01–1μM ), suramin ( 0.5–50μM ), histamine ( 0.1–100μM ), and chloroquine ( 1–500μM ) as chemicals associated with specific effects on ECs. Each test chemical was screened in triplicate for each concentration. Briefly, for iCell®-endothelial cells, starvation media consisted of VascuLife® basal medium with 4 mM L-glutamine LifeFactor and 0.1% iCell®-endothelial cells medium supplement. To counter dilution effects, a 2× concentration of the HUVEC maintenance medium supplemented with additional VEGF was created (EGM™-2 BulletKits™ at 2× concentration; also the VEGF component was replaced with 12.5 ng/mL VEGF). Geltrex™ LDEV-free reduced growth factor basement membrane was thawed overnight and dispensed into 384-well plates ( 10μL/well ) with tapping and rotating to evenly coat. The plates were incubated for 1 h in a cell culture incubator at 37°C and 5% CO2 . A 2× PCB plate (containing all of the PCBs and metabolites in dose–response) was prepared in basal media and added, 25μL per well, to the Geltrex™ coated plates. On separate plates, cells were seeded 7,500 (iPSC- ECs) or 3,500 (HUVEC) cells/well. Cells were exposed to chemicals overnight at 37°C and 5% CO2 and stained with 3× concentration of calcein AM ( 25μL /well, 6μmol/L ) for 15 min before imaging. Images were captured at 4× magnification with the FITC filter (calcein AM). Images were analyzed with the angiogenesis module software within MetaXpress™ (Molecular Devices).
Phenotypic responses were quantitatively assessed using concentration–response modeling as detailed elsewhere ([Sirenko et al. 2017]). Briefly, phenotypic readouts were normalized to vehicle controls and fit to a four-parameter logistic model in R studio software (version 3.1.1; R Development Core Team). Following EPA guidance on dose–response modeling, a cutoff of one standard deviation across means of vehicle control (i.e., 0.5% vol/vol DMSO in cell culture media) wells was applied to determine the point-of-departure (POD) values ([U.S. EPA 2012]). In the absence of a concentration–response, the highest tested concentration (i.e., 100μM ) was assigned as “no observable adverse effect level.” The concentration–response assessment R script, as well as templates for vehicle and concentration–response data, are available as a supplement to Sirenko et al. ([2017]). The ability of physicochemical properties to predict differences in PODs were evaluated by multiregression and mixed-effects modeling using R.

[1] = HUVECs, 0.00 µM = 100.00, read-out: huvec.mtl.18hr
[2] = HUVECs, 0.00 µM = 100.00, read-out: huvec.tlps.18hr
[3] = HUVECs, 0.00 µM = 100.00, read-out: huvec.tta.18hr
[4] = HUVECs, 0.00 µM = 100.00, read-out: huvec.ttl.18hr
[5] = HUVECs, top concentration 100.00 µM, read-out: huvec.mtl.18hr POD
[6] = HUVECs, top concentration 100.00 µM, read-out: huvec.tlps.18hr POD
[7] = HUVECs, top concentration 100.00 µM, read-out: huvec.tta.18hr POD
[8] = HUVECs, top concentration 100.00 µM, read-out: huvec.ttl.18hr POD
[9] = tube formation mtl, read-out: POD huvec.mtl.18hr
[10] = tube formation tlps, read-out: POD huvec.tlps.18hr
[11] = tube formation tta, read-out: POD huvec.tta.18hr
[12] = tube formation ttl, read-out: POD huvec.ttl.18hr

| SMILES | activity at 0.01 µM [1] [%] | activity at 0.01 µM [2] [%] | activity at 0.01 µM [3] [%] | activity at 0.01 µM [4] [%] | activity at 0.1 µM [1] [%] | activity at 0.1 µM [2] [%] | activity at 0.1 µM [3] [%] | activity at 0.1 µM [4] [%] | activity at 1 µM [1] [%] | activity at 1 µM [2] [%] | activity at 1 µM [3] [%] | activity at 1 µM [4] [%] | activity at 10 µM [1] [%] | activity at 10 µM [2] [%] | activity at 10 µM [3] [%] | activity at 10 µM [4] [%] | activity at 100 µM [1] [%] | activity at 100 µM [2] [%] | activity at 100 µM [3] [%] | activity at 100 µM [4] [%] | also measured |
| --- | --- | --- | --- | --- | --- | --- | --- | --- | --- | --- | --- | --- | --- | --- | --- | --- | --- | --- | --- | --- | --- |
| Oc1ccc(O)c(-c2ccc(Cl)cc2)c1 [2',5'-DiOH PCB3] | 99 | 90.3 | 127 | 123 | 104 | 135 | 107 | 107 | 91.9 | 93.2 | 87.2 | 90.1 | 64.1 | 21.9 | 19.3 | 19.9 | 57.8 | 9.87 | 0.82 | 1.52 | minimal effective concentration [5]: 1.26 µM; minimal effective concentration [6]: 1.55 µM; minimal effective concentration [7]: 1.39 µM; minimal effective concentration [8]: 1.23 µM |
| Oc1ccc(O)c(-c2ccc(Cl)cc2)c1 [2',5'-diOH-PCB 3, 4-Chloro-2′,5′-dihydroxybiphenyl] |  |  |  |  |  |  |  |  |  |  |  |  |  |  |  |  |  |  |  |  | minimal effective concentration [9]: 1.26 µM; minimal effective concentration [10]: 1.55 µM; minimal effective concentration [11]: 1.39 µM; minimal effective concentration [12]: 1.23 µM |
| Oc1ccccc1-c1ccc(Cl)cc1 [2'-OH PCB3] | 96 | 85.8 | 84 | 89.1 | 77.3 | 49.3 | 42.9 | 47.4 | 95.4 | 65 | 71.9 | 75 | 92.4 | 77.5 | 65.8 | 69.6 | 73.9 | 35.5 | 64 | 49.6 | minimal effective concentration [5]: 100 µM; minimal effective concentration [6]: 0.57 µM; minimal effective concentration [7]: 100 µM; minimal effective concentration [8]: 100 µM |
| Oc1ccccc1-c1ccc(Cl)cc1 [2'-OH-PCB 3] |  |  |  |  |  |  |  |  |  |  |  |  |  |  |  |  |  |  |  |  | minimal effective concentration [9]: 100 µM; minimal effective concentration [10]: 0.57 µM; minimal effective concentration [11]: 100 µM; minimal effective concentration [12]: 100 µM |
| O=S(=O)(O)Oc1cc(Cl)ccc1-c1ccccc1 [2-yl PCB 3 sulfate] | 100 | 98.8 | 108 | 108 | 99.3 | 101 | 147 | 147 | 97.8 | 116 | 132 | 128 | 90.4 | 99.7 | 90.3 | 93.2 | 74.5 | 59.6 | 61.5 | 62 | minimal effective concentration [5]: 10.7 µM; minimal effective concentration [6]: 37.4 µM; minimal effective concentration [7]: 100 µM; minimal effective concentration [8]: 100 µM |
| Oc1cccc(-c2ccc(Cl)cc2)c1 [3'-OH PCB3] | 96.9 | 88.1 | 90.6 | 92 | 102 | 83.7 | 124 | 127 | 93 | 89.2 | 91.7 | 95.4 | 70.2 | 66.1 | 58.6 | 61.5 | 72.3 | 25.9 | 17.3 | 15.5 | minimal effective concentration [5]: 1.14 µM; minimal effective concentration [6]: 1.01 µM; minimal effective concentration [7]: 3.65 µM; minimal effective concentration [8]: 3.26 µM |
| Oc1cccc(-c2ccc(Cl)cc2)c1 [3'-OH-PCB 3] |  |  |  |  |  |  |  |  |  |  |  |  |  |  |  |  |  |  |  |  | minimal effective concentration [9]: 1.14 µM; minimal effective concentration [10]: 1.01 µM; minimal effective concentration [11]: 3.65 µM; minimal effective concentration [12]: 3.26 µM |
| O=S(=O)(O)Oc1cccc(-c2ccc(Cl)cc2)c1 [3'-PCB 3 sulfate] |  |  |  |  |  |  |  |  |  |  |  |  |  |  |  |  |  |  |  |  | minimal effective concentration [9]: 15.5 µM; minimal effective concentration [10]: 100 µM; minimal effective concentration [11]: 100 µM; minimal effective concentration [12]: 100 µM |
| O=S(=O)(O)Oc1cccc(-c2ccc(Cl)cc2)c1 [3'-yl PCB 3 sulfate] | 106 | 119 | 121 | 112 | 110 | 121 | 141 | 142 | 111 | 129 | 141 | 137 | 97.5 | 141 | 104 | 102 | 58 | 37.8 | 52.3 | 58.3 | minimal effective concentration [5]: 15.5 µM; minimal effective concentration [6]: 100 µM; minimal effective concentration [7]: 100 µM; minimal effective concentration [8]: 100 µM |
| O=S(=O)(O)Oc1cc(-c2ccccc2)ccc1Cl [3-PCB 3 sulfate] |  |  |  |  |  |  |  |  |  |  |  |  |  |  |  |  |  |  |  |  | minimal effective concentration [9]: 11.5 µM; minimal effective concentration [10]: 65.8 µM; minimal effective concentration [11]: 100 µM; minimal effective concentration [12]: 52.1 µM |
